Data from patent publication US4861889A, “3-(2,3,4,5,6-pentafluorophenoxy)-8-azabicyclo[3.2.1]octanes” (Hoechst-Roussel Pharmaceuticals, Inc., priority 1988, dated 1989).
Counter-ions that a name gives are not always drawn.

What was measured:
[1] = phenyl-p-benzoquinone writhing assay (analgesic activity); type: in vivo, male mice (Charles River, CD-1); details: Mus musculus, sc, mice; for inhibition in vivo at 20 mg/kg: s.c., read-out: % Inhibition of writhing at a screening dose of 20 mg/kg, s.c.
Procedure: The compounds of this invention are useful as analgesic agents due to their ability to alleviate pain in mammals. The procedure employed to determine analgetic utility is a modification of the phenyl-p-benzoquinone writhing assay in mice, a standard assay for analgesia [Proc. Soc. Exptl. Bio. Med., 95, 729 (1957)]. Pursuant to the modified procedure phenyl-p-benzoquinone (Eastman, 12.5 mg) is dissolved in 5 ml of 95% ethanol and the solution is diluted to a total volume of 100 ml with distilled water. The solution is administered to the subject mice intraperitoneally at a dose of 10 ml per kg of body weight. A characteristic "writhe"an inward rotation of one or more feet with twisting and turning of the trunk, drawing in of the abdominal wall, lordosis and arching of the back, is produced.
A total of 28 male mice (Charles River, CD-1), weighing 18 to 30 grams, are employed for a time response. The subject animals receive food and water ad libitum. Test compounds are dissolved in distilled water, or suspended in distilled water containing one drop of a suitable surfactant, such as Tween-80.
Four groups of five animals (20 animals) are given the test compound subcutaneously (s.c.) or orally (p.o.) at 15, 30, 45 and 60 minutes prior to administration of the phenyl-p-quinone. A control group (2 animals per group) receive an equal volume of the vehicle. After the administration of the phenyl-p-quinone, the mice are place separately in one liter beakers, and after five minutes, are observed for ten minutes. The number of writhes for each animal is recorded. The following formula is used to compute the percent inhibition: [formula]
The time period with the greatest percent of inhibition is considered the peak time.

[2] = L-5-hydroxytryptophan (5-HTP) potentiation assay, antidepressant activity; type: in vivo, male Wistar rats; details: Rattus norvegicus, ip, read-out: 5-HTP Potentiation ED50
Procedure: The compounds of this invention are also useful as antidepressants by virtue of their ability to elicit an antidepressant response in mammals. Antidepressant activity is determined by the L-5-hydroxytryptophan potentiation assay in rats described in Brit. J. Pharmacol., 20, pp. 106-120 (1963) and J. Med. Chem., 24, 74 (1980).
Groups of six male Wistar rats (150-200 grams each) are used in this assay. Pursuant to this procedure pargyline hydrochloride is prepared and administered four hours before testing by subcutaneous injection at 75 mg/kg in 1% saline and at dosage volume of 1.0 ml/kg. Thirty minutes before testing, drugs are prepared and dosed using distilled water and, if insoluble, a suitable surfactant is added. Control groups receive vehicle. Drugs are routinely administered intraperitoneally at a dosage volume of 10 ml/kg. L-5-hydroxytryptophan (5-HTP) is prepared at 1.0 mg/kg in distilled water and is administered intraperioneally in volumes proportional to 10 ml/kg. Drugs are administered in a randomized manner and 15 minutes post 5-HTP treatment, the animals are observed for 15 minutes.
Potentiation is expressed as normalized percent potentiation relative to vehicle control.

[3] = antihypertensive activity, indirect tail cuff method (SHR); type: in vivo, spontaneous hypertensive rat; details: treated three days, drop measured on third day, decrease in mean arterial blood pressure
Procedure: The compounds of this invention are also useful as antihypertensive agents due to their ability to depress blood pressure in mammals. Antihypertensive activity is measured in the spontaneous hypertensive rat by the indirect tail cuff method described in "Methods in Pharmacology", A. Schwartz, Ed., Vol. I, Appleton-Century Crofts, New York, N.Y., 1971, p. 135. In this procedure a group of five animals is treated orally for three days with the test compound in relation to a control group of the same number. The drop in blood pressure is measured on the third day following administration. The antihypertensive activities of representative compounds, expressed as a decrease in mean arterial blood pressure (in mm Hg), are given in Table 3 along with the activity of a standard compound.

[4] = supramaximal electroshock (SES) assay, anticonvulsant activity; type: in vivo, male mice (Charles River, CD-1); details: Mus musculus, ip, mice
Procedure: (§1) The compounds of this invention are also useful as anticonvulsants due to their anticonvulsant activity in mammals. Anticonvulsant activity is measured in male mice using the supramaximal electroshock (SES) assay described in Arch. Int. Pharmacodyn. 92, pp. 97-107, (1952) and the metrazol lethality assay (MTZ) described in J. Pharmacol. Exp. Ther., 81, 402 (1944).
Groups of male mice (Charles River, CD-1) weighing 18 to 30 g are employed in the SES assay. Test compounds are dissolved in distilled water, or if insoluble, suspended in water containing one drop of a surfactant, such as Tween-80. Test compounds are generally administered intraperitoneally at a dose of 10 ml of solution, or suspension, per kg of animal body weight. The output terminals of an A.C. shocker, which delivers 206 volts rms for 300 msec, are placed across the animals' eyes, an electrode paste coating assuring contact of the terminals with the eyes. The test compound is administered and thereafter the subject animals are shocked.
Protection is expressed as normalized percent inhibition relative to vehicle control. [formula] A time response is carried out using 6 animals per group. Animals are tested at 30, 60 and 120 minutes post drug. Additional time periods are tested if indicated by previous tests. A dose range determination is generally reserved for those compounds which inhibit convulsions by greater than about 45-55% at the screening dose employed at the time the test was performed. When the peak activity time has been determined, a dose response is initiated, using 10 animals per group at that time period.
The anticonvulsant activity of several of the compounds of this invention as per the SES and MTZ assay procedures is provided in Table 2.

[5] = Metrazol lethality assay (MTZ), anticonvulsant activity; type: in vivo, male mice (Charles River, CD-1); details: Mus musculus, po, mice, protection against Metrazol lethality
Procedure: as §1
Groups of male mice (Charles River, CD-1), weighing 18 to 30 grams are employed in the Metrazol lethality assay. Test compounds are dissolved in distilled water or if insoluble, suspended in water, to which a surfactant, such as Tween-80 is added. The test compounds are administered orally, the administered dose being dissolved or suspended in 10 ml of solution or suspension per kg of animal body weight. Control animals (2 mice/group) receive water or water and Tween-80, i.e., the vehicle for administration of the test compound. Metrazol (pentylenetetrazol) is dissolved in water (concentration 225 mg of Metrazol/10 ml of solution), and the solution is administered subcutaneously to groups of five animals each at one or more time intervals of 15, 30, 60, 90, or 120 minutes after administration of the test compound. The number of animal alive 15 minutes after treatment with Metrazol is determined and recorded. The following formula is employed to calculate the percent protection against Metrazol lethality. [formula] […]

Cc1[nH]c2ccccc2c1CCCN1[C@@H]2CC[C@H]1C[C@@H](Oc1c(F)c(F)c(F)c(F)c1F)C2 [(ENDO)-3-(2,3,4,5,6-PENTAFLUOROPHENOXY)-8-[3-(2-METHYLINDOL-3-YL)PROPYL]-8- AZABICYCLO[3.2.1]OCTANEHYDROCHLORIDE]
inhibition in vivo at 20 mg/kg [1]: 39%

COc1cc2onc(CCCN3[C@@H]4CC[C@H]3C[C@@H](Oc3c(F)c(F)c(F)c(F)c3F)C4)c2cc1OC [(ENDO)-3-(2,3,4,5,6-PENTAFLUOROPHENOXY)-8-[(5,6-DIMETHOXY-1,2-BENZISOXAZOL- 3-YL)PROPYL]-8-AZABICYCLO[3.2.1]OCTANEHYDROCHLORIDE]
inhibition in vivo at 20 mg/kg [1]: 37%
ED50 [2]: 21.1 mg/kg

Fc1ccc2c(CCCN3[C@@H]4CC[C@H]3C[C@@H](Oc3c(F)c(F)c(F)c(F)c3F)C4)noc2c1 [(ENDO)-8-[3-(6-FLUORO-1,2-BENZISOXAZOL-3-YL)PROPYL]-3-(2,3,4,5,6-PENTAFLUOROPHENOXY)-8-AZABICYCLO[3.2.1OCTANE HYDROCHLORIDE]
inhibition in vivo at 20 mg/kg [1]: 45%

Cc1[nH]c2ccccc2c1CCCN1[C@@H]2CC[C@H]1C[C@H](Oc1c(F)c(F)c(F)c(F)c1F)C2 [(EXO)-3-(2,3,4,5,6-PENTAFLUOROPHENOXY)-8-[3-(2-METHYLINDOL-3-YL)PROPYL]-8-AZABICYCLO[3.2.1]OCTANE HYDROCHLORIDE]
inhibition in vivo at 20 mg/kg [1]: 42%

Fc1ccc2c(CCCN3[C@@H]4CC[C@H]3C[C@H](Oc3c(F)c(F)c(F)c(F)c3F)C4)noc2c1 [(EXO)-8-[3-(6-FLUORO-1,2-BENZISOXAZOL-3-YL)PROPYL]-3-(2,3,4,5,6-PENTAFLUOROPHENOXY)-8-AZABICYCLO[3.2.1]OCTANE HYDROCHLORIDE]
inhibition in vivo at 20 mg/kg [1]: 49%
mm dec. in BP at 50 mg/kg p.o. [3]: 48 mm

COc1ccccc1N1CCN(CCCN2[C@@H]3CC[C@H]2C[C@@H](Oc2c(F)c(F)c(F)c(F)c2F)C3)CC1 [(endo)-3-(2,3,4,5,6-pentafluorophenoxy)-8-[3-[4-(2-methoxyphenyl)piperazin-1-yl]propyl]-8-azabicyclo[3.2.1]octane]
inhibition in vivo at 20 mg/kg [1]: 55%

CP(C)(=O)CN1[C@@H]2CC[C@H]1C[C@@H](Oc1c(F)c(F)c(F)c(F)c1F)C2 [(endo)-3-(2,3,4,5,6-pentafluorophenoxy)-8-[(dimethylphosphinyl)methyl]-8-azabicyclo[3.2.1]octane]
ED50 [2]: 10.8 mg/kg

Fc1c(F)c(F)c(O[C@H]2C[C@H]3CC[C@@H](C2)N3)c(F)c1F [(endo)-3-(2,3,4,5,6-pentafluorophenoxy)-8-azabicyclo[3.2.1]octane hydrochloride]
ED50 [2]: 15.6 mg/kg

CN1[C@@H]2CC[C@H]1C[C@](Oc1c(F)c(F)c(F)c(F)c1F)(c1ccccc1)C2 [(endo)-3-(2,3,4,5,6-pentafluorophenoxy)-8-methyl-3-phenyl-8-azabicyclo[3.2.1]octane hydrochloride]
inhibition in vivo at 20 mg/kg [1]: 42%

CN1[C@@H]2CC[C@H]1C[C@@H](Oc1c(F)c(F)c(F)c(F)c1F)C2 [(endo)-3-(2,3,4,5,6-pentafluorophenoxy)-8-methyl-8-azabicyclo[3.2.1]octane]
ED50 [2]: 16.2 mg/kg

NC(=O)N1[C@@H]2CC[C@H]1C[C@@H](Oc1c(F)c(F)c(F)c(F)c1F)C2 [(endo)-8-aminocarbonyl-3-(2,3,4,5,6-pentafluorophenoxy)-8-azabicyclo[3.2.1]octane]
ED50 [4]: 25.2 mg/kg
inhibition in vivo at 20 mg/kg [1]: 38%
ED50 [5]: 12.7 mg/kg

CN(C)C(=O)N1[C@@H]2CC[C@H]1C[C@H](Oc1c(F)c(F)c(F)c(F)c1F)C2 [(exo)-3-(2,3,4,5,6-pentafluorophenoxy)-8-[(N,N-dimethylamino)carbonyl]-8-azabicyclo[3.2.1]octane]
inhibition in vivo at 20 mg/kg [1]: 39%

Fc1c(F)c(F)c(O[C@@H]2C[C@H]3CC[C@@H](C2)N3)c(F)c1F [(exo)-3-(2,3,4,5,6-pentafluorophenoxy)-8-azabicyclo[3.2.1]octane]
ED50 [2]: 8.4 mg/kg

NC(=O)N1[C@@H]2CC[C@H]1C[C@H](Oc1c(F)c(F)c(F)c(F)c1F)C2 [(exo)-8-(aminocarbonyl)-3-(2,3,4,5,6-pentafluorophenoxy)-8-azabicyclo[3.2.1]octane]
inhibition in vivo at 20 mg/kg [1]: 32%

CC(=O)N1[C@@H]2CC[C@H]1C[C@H](Oc1c(F)c(F)c(F)c(F)c1F)C2 [(exo)-8-acetyl-3-(2,3,4,5,6-pentafluorophenoxy)-8-azabicyclo[3.2.1]octane]
ED50 [5]: 41.9 mg/kg

CC(=O)Oc1ccccc1C(=O)O [Asprin, reference compound]
ED50 ([1]; column head s.c., read-out: ED50 (calculated dosage at which a 50% inhibition of writhing is achieved)): 32.8 mg/kg

CN(C)CCC=C1c2ccccc2CCc2ccccc21 [amitriptyline, reference compound]
ED50 ([2]; rats): 7.1 mg/kg

CN1[C@@H]2CC[C@H]1C[C@@H](Oc1c(F)c(F)c(F)c(F)c1F)C2 [endo-3-(2,3,4,5,6-pentafluorophenoxy)-8-methyl-8-azabicyclo[3.2.1]octane oxalate]
inhibition in vivo at 20 mg/kg [1]: 49%

CC(=O)N1[C@@H]2CC[C@H]1C[C@@H](Oc1c(F)c(F)c(F)c(F)c1F)C2 [endo-8-acetyl-3-(2,3,4,5,6-pentafluorophenoxy)-8-azabicyclo[3.2.1]octane]
ED50 [4]: 35.1 mg/kg

CN1[C@@H]2CC[C@H]1C[C@H](Oc1c(F)c(F)c(F)c(F)c1F)C2 [exo-3-(2,3,4,5,6-pentafluorophenoxy)-8-methyl-8-azabicyclo[3.2.1]octane hydrochloride]
inhibition in vivo at 20 mg/kg [1]: 43%
ED50 [2]: 13.4 mg/kg

N=C(N)NCCN1CCCCCCC1 [guanethidine, reference compound]
mm dec. in BP at 50 mg/kg p.o. [3]: 20 mm

CCC1(c2ccccc2)C(=O)NC(=O)NC1=O [phenobarbital, reference compound]
ED50 [4]: 8.4 mg/kg
